Test results as given in ChEMBL document CHEMBL1201862, “PubChem BioAssay data set” (2004).
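Interpolation was linear, between the two tested concentrations surrounding the appropriate level; five concentrations were tested over 48 hours in 96-well plates. Here, GI50 denotes the concentration required for 50% inhibition of growth.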 Calls of active or inactive are those of the source. No stated cut-off is given here; in the data, active = GI50 up to about 1.1 µM and inactive = higher.

Tests used:
Assay in all cases: NCI tumour cell line growth inhibition, 48 h
[1] = system: 786-0
[2] = system: A498
[3] = system: A549
[4] = system: ACHN
[5] = system: BT-549
[6] = system: CAKI-1
[7] = system: CCRF-CEM
[8] = system: COLO 205
[9] = system: DU-145
[10] = system: EKVX
[11] = system: HCC 2998
[12] = system: HCT-116
[13] = system: HL-60
[14] = system: HOP-62
[15] = system: HT-29
[16] = system: IGROV-1
[17] = system: K562
[18] = system: KM12
[19] = system: M14
[20] = system: MCF7
[21] = system: MDA-MB-231
[22] = system: MDA-MB-435
[23] = system: MDA-N
[24] = system: MOLT-4
[25] = system: Malme-3M
[26] = system: NCI-H460
[27] = system: NCI/ADR-RES
[28] = system: OVCAR-3
[29] = system: OVCAR-5
[30] = system: OVCAR-8
[31] = system: PC-3
[32] = system: RPMI-8226
[33] = system: RXF 393
[34] = system: SF-268
[35] = system: SF-295
[36] = system: SF-539
[37] = system: SK-MEL-28
[38] = system: SK-MEL-2
[39] = system: SK-MEL-5
[40] = system: SK-OV-3
[41] = system: SN12C
[42] = system: SNB-19
[43] = system: SNB-75
[44] = system: SW-620
[45] = system: T47D
[46] = system: TK-10
[47] = system: UACC-257
[48] = system: UACC-62
[49] = system: UO-31
[50] = system: HCT-15
[51] = system: HOP-92
[52] = system: Hs-578T
[53] = system: LOX IMVI
[54] = system: NCI-H226
[55] = system: NCI-H23
[56] = system: NCI-H522
[57] = system: OVCAR-4
[58] = system: U-251

CN(C)Cc1cc(/C=C/C(=O)c2ccc(Cl)c(Cl)c2)cc(CN(C)C)c1O was tested, and the GI50 [1] was 9.4 µM (inactive), the GI50 [2] was 16.1 µM (inactive) and the GI50 [3] was 15.9 µM (inactive). For the same molecule, the GI50 [4] was 12.8 µM (inactive), the GI50 [5] was 7.74 µM (inactive) and the GI50 [6] was 9.02 µM (inactive). The GI50 [7] was 5.02 µM (inactive), the GI50 [8] was 11.2 µM (inactive) and the GI50 [9] was 13.9 µM (inactive). The GI50 [10] was 15.6 µM (inactive), the GI50 [11] was 6.35 µM (inactive) and the GI50 [12] was 12.8 µM (inactive). For the same molecule, the GI50 [13] was 3.9 µM (inactive), the GI50 [14] was 15.5 µM (inactive) and the GI50 [15] was 10.8 µM (inactive). For the same molecule, the GI50 [16] was 9.98 µM (inactive), the GI50 [17] was 25.2 µM (inactive) and the GI50 [18] was 13.1 µM (inactive). For the same molecule, the GI50 [19] was 13 µM (inactive), the GI50 [20] was 12.9 µM (inactive) and the GI50 [21] was 7.05 µM (inactive). The GI50 [22] was 5.32 µM (inactive), the GI50 [23] was 11.2 µM (inactive) and the GI50 [24] was 10.1 µM (inactive). For the same molecule, the GI50 [25] was 9.59 µM (inactive), the GI50 [26] was 10.4 µM (inactive) and the GI50 [27] was 19 µM (inactive). For the same molecule, the GI50 [28] was 10.3 µM (inactive), the GI50 [29] was 12.5 µM (inactive) and the GI50 [30] was 13.6 µM (inactive). The GI50 [31] was 12.4 µM (inactive), the GI50 [32] was 13.4 µM (inactive) and the GI50 [33] was 11 µM (inactive). The GI50 [34] was 10.8 µM (inactive), the GI50 [35] was 20.2 µM (inactive) and the GI50 [36] was 6.92 µM (inactive). The GI50 [37] was 12.5 µM (inactive), the GI50 [38] was 14 µM (inactive) and the GI50 [39] was 11.7 µM (inactive). The GI50 [40] was 21.8 µM (inactive), the GI50 [41] was 13.5 µM (inactive) and the GI50 [42] was 15 µM (inactive). For the same molecule, the GI50 [43] was 9.12 µM (inactive), the GI50 [44] was 12.9 µM (inactive) and the GI50 [45] was 11 µM (inactive). The GI50 [46] was 12.4 µM (inactive), the GI50 [47] was 12.1 µM (inactive) and the GI50 [48] was 14.3 µM (inactive). For the same molecule, the GI50 [49] was 6.46 µM (inactive).
COc1ccc(COC(=O)NNC(=O)C2CSC(c3ccccc3)N2C(C)=O)cc1 (configuration not stated) was tested, and the GI50 [1] was > 100 µM (inactive), the GI50 [2] was > 100 µM (inactive) and the GI50 [3] was > 100 µM (inactive). The GI50 [4] was > 100 µM (inactive), the GI50 [5] was > 100 µM (inactive) and the GI50 [6] was > 100 µM (inactive). For the same molecule, the GI50 [7] was > 100 µM (inactive), the GI50 [9] was > 100 µM (inactive) and the GI50 [10] was > 100 µM (inactive). For the same molecule, the GI50 [11] was > 100 µM (inactive), the GI50 [12] was > 100 µM (inactive) and the GI50 [50] was over 100 µM. The GI50 [13] was > 100 µM (inactive), the GI50 [14] was > 100 µM (inactive) and the GI50 [51] was > 100 µM (inactive). For the same molecule, the GI50 [15] was > 100 µM (inactive), the GI50 [52] was > 100 µM (inactive) and the GI50 [16] was > 100 µM (inactive). The GI50 [17] was > 100 µM (inactive), the GI50 [18] was > 100 µM (inactive) and the GI50 [53] was > 100 µM (inactive). For the same molecule, the GI50 [19] was > 100 µM (inactive), the GI50 [20] was > 100 µM (inactive) and the GI50 [22] was > 100 µM (inactive). The GI50 [23] was > 100 µM (inactive), the GI50 [24] was > 100 µM (inactive) and the GI50 [25] was > 100 µM (inactive). The GI50 [54] was > 100 µM (inactive), the GI50 [55] was > 100 µM (inactive) and the GI50 [26] was > 100 µM (inactive). The GI50 [56] was > 100 µM (inactive), the GI50 [27] was > 100 µM (inactive) and the GI50 [28] was > 100 µM (inactive). The GI50 [57] was > 100 µM (inactive), the GI50 [29] was > 100 µM (inactive) and the GI50 [30] was > 100 µM (inactive). For the same molecule, the GI50 [31] was > 100 µM (inactive), the GI50 [32] was > 100 µM (inactive) and the GI50 [34] was > 100 µM (inactive). For the same molecule, the GI50 [35] was > 100 µM (inactive), the GI50 [36] was > 100 µM (inactive) and the GI50 [38] was > 100 µM (inactive). For the same molecule, the GI50 [39] was > 100 µM (inactive), the GI50 [40] was > 100 µM (inactive) and the GI50 [41] was > 100 µM (inactive). For the same molecule, the GI50 [42] was > 100 µM (inactive), the GI50 [43] was > 100 µM (inactive) and the GI50 [44] was > 100 µM (inactive). The GI50 [46] was > 100 µM (inactive), the GI50 [58] was > 100 µM (inactive) and the GI50 [47] was > 100 µM (inactive). The GI50 [48] was > 100 µM (inactive) and the GI50 [49] was > 100 µM (inactive).
